Laboratory results from US5919464A, “Treatment of aberrant cellular states with biomodulators” (University of New Mexico, priority 1993, dated 1999).

How the values were obtained:
canine glioma tumors = experiment: canine glioma tumor growth in nude rats, various biomodulators; type: in vivo; settings: in words
Method: C57 BL/6 mice were injected I.M. with B-16 melanoma cells, maintained in culture in the right flank or shoulder. Tumor growth was monitored on a daily basis by physical measurement and by MRI/MRS on a weekly basis. Treatment routes were via intraperitoneal injection using various CAD between 1 μg and 0.001 μg per animal on a M, W, F injection schedule. The animals were terminated by CO2 when the tumors had become 1.0 cm in diameter. Lung metastases were counted.
Various biomodulators were tested in vivo for their effects on canine glioma tumors established and monitored as above for mice, but in nude rats. […] FIGS. 29-30 show the progression of the tumors over time with treatment with, respectively, PWM, Sw, CAD, HHD-2, HHD-3, HHD-4, and HHD-7.

P-815 mastocytoma cells = experiment: P-815 cytotoxic T lympholysis / cell mediated lympholysis (CML), spleen cells treated in culture; type: cell-based, mouse; settings: hydrocortisone 2 mg given day -2; hydroxyurea 10^-5M; in words
Method: In this case the P-815 is injected into the H-2 incompatible host and in the Brunner and Cerotini model an antigen specific lympholysis event occurs with an optimum on day 11 at an effector/target ratio of 100:1 with 30% lysis If the spleens of the injected animals are removed on day three there is no observable cytotoxicity; however, if the spleen cells are treated with biomodulator (in this case PWM at 100 ng) there is an enormous increase in the cytotoxicity event. […] The slope represents a measure of the efficiency of kill and in the biomodulator treated cells is approximately 1.6 versus 0.24 for the control antigen driven response on day 11. This represents a seven fold increase in simple cytotoxicity efficiency. Again this is concentration dependent and the kinetics of the response are such that if the cells are left in culture for times which approximate the in vivo 11 day optimum then the lysis values approach the untreated controls. […]
P 815 mastocytoma cells are grown in culture or as an ascites (DBA H-2/d) and injected into C57BL/6J mice (H-2/b). […] The specificity of the response is assessed by testing the cytotoxicity against EL-4 cells ([…]) which are NK insensitive and histoincompatible with the original target. […]
Seven effector/target ratios are tested and the percent lysis calculated. […]

[1] = tested on: human peripheral blood leukocytes (HPBLs); experiment: HPBL 3H-thymidine incorporation (proliferation); type: cell-based; set-up: reference not given here
Text: (§1) C. […] This model is used to correlate the effects of biomodulators on the expression of immune response in vitro. The plaque assay disclosed in this reference is used for the determination of the effect of biomodulators on the specificity, class and subclass of individual clones.
(§2) A. Purification of PWM and separation of the differentiative and proliferative functions Pokeweed Mitogen (PWM) and three of its isomitogens, Pa-1 and Pa-5, which are primarily differentiative in nature, and Pa-2 which is primarily proliferative, were prepared according to the method of Waxdal, supra, except that the iso-mitogens were finally purified by isoelectric focusing.

[2] = tested on: human peripheral blood leukocytes (HPBLs); experiment: HPBL plaque forming cell (PFC) assay / IgG production in vitro (differentiation); type: cell-based; settings: HPBL; for Stimulation of IgG Production, Percent: at the stimulating concentration
Text: as §1, §2
Human peripheral blood leukocytes were cultured in a standard tissue culture medium. Aliquots of these cultured cells (1,000,000 cells/ml medium) were cultured for 6 hours, and the specified amount of Formula II compound was added; the cells were then cultured for an additional 90 hours. Sheep red blood cells (SRBC) conditioned with class-specific (IpG) goat anti-human antiserum (1:400) for 2 hours; then guinea pig complement (2%) for 2 hours were conjugated to Protein A as described in detail in Radioimmunoimaging and Radioimmunotherapy, Eds.

HMGCoA reductase = molecular target: T1, HMGCoA reductase (Rattus norvegicus, UniProt P51639); experiment: inhibition of rat liver HMGCoA reductase activity; type: biochemical; set-up: from tissue; host or cells: rat liver; settings: rat liver
T1 sequence (P51639 1-887): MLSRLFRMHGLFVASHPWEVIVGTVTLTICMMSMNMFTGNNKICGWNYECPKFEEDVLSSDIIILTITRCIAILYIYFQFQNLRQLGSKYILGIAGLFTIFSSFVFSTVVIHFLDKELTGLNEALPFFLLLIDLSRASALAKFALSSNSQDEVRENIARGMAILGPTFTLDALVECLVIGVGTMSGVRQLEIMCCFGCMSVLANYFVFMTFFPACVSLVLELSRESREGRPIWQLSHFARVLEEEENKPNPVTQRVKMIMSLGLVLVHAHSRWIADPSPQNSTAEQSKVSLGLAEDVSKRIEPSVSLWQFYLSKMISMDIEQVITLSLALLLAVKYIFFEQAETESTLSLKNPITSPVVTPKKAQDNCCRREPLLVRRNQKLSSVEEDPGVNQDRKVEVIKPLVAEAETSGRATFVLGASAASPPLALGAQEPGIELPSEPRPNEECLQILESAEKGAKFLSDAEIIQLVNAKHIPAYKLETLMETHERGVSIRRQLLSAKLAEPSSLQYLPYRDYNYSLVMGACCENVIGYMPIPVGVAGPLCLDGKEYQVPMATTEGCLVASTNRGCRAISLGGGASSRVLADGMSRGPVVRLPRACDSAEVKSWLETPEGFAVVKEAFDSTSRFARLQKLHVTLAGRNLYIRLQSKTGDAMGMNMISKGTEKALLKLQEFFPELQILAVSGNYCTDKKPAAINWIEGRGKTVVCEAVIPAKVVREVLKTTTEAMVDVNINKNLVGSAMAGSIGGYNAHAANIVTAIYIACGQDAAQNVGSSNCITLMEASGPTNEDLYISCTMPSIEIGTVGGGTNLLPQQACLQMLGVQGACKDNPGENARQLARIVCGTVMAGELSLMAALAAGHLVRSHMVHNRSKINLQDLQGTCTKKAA
Text: reductase activity; data obtained according to Example IA.

canine glioma = experiment: in vivo inhibition of canine glioma in dog brain (NMR)
Method: Canine glioma was implanted surgically into the brains of four outbred dogs (2×10^6 cells). This procedure normally causes death by tumor growth in 14-28 days.
Simultaneous with implantation, the dogs were each placed on a regimen of compounds according to the invention, Compounds IIa', IIe' and TF004 in various dosages were administered on alternate days (M, W, F) by I.P. injection in phosphate buffered saline.
Tumor progress was assessed at weekly intervals by NMR, employing GdDTPA as imaging agent. This method illuminates vascularization at the surface of the tumor, and provides images which correlate well with neuropathological observations.

[3] = 1 ng/kg I.P., treatment begun on day of implantation

IC50 (HMGCoA reductase)	SMILES	Proliferation ((3H) thymidine incorporation into DNA) [1]	Stimulation of IgG Production, Concentration [2]	Stimulation of IgG Production, Percent [2]	other results
–	CC(C)OC(=O)C[C@H](O)C[C@H](O)/C=C/c1c(C(C)C)nc(-c2ccccc2)n1-c1ccc(F)cc1 [HHD-3]	–	–	–	canine glioma tumor regression in nude rats (canine glioma tumors): showed no regression effect, just delay of the control growth pattern
–	CC(C)OC(=O)C[C@H](O)C[C@@H](O)/C=C/c1c(C(C)C)nc(-c2ccccc2)n1-c1ccc(F)cc1 [HHD-7]	–	–	–	canine glioma tumor regression in nude rats (canine glioma tumors): showed the best regression
–	C[C@]12CCC(=O)C=C1CC[C@@H]1[C@@H]2[C@@H](O)C[C@@]2(C)[C@H]1CC[C@]2(O)C(=O)CO [Hydrocortisone]	–	–	–	influence on the biomodulator effect on CML (P-815 mastocytoma cells): reduced the biomodulator effect
–	NC(=O)NO [Hydroxyurea]	–	–	–	influence on the biomodulator effect on CML (P-815 mastocytoma cells): does not inhibit the biomodulator effect on CML
3150 nM	CC(C)OC(=O)C[C@@H](O)C[C@@H](O)/C=C/c1c(C(C)C)nc(-c2ccccc2)n1-c1ccc(F)cc1 [IIa]	0.98	200 pM	1700%	Inhibitory Concentration (inhibiting nonspecific IgG production below normal production) [2]: none found
1350 nM	CC(C)OC(=O)C[C@@H](O)C[C@H](O)/C=C/c1c(C(C)C)nc(-c2ccccc2)n1-c1ccc(F)cc1 [IIb]	1.0	200 pM	1700%	Inhibitory Concentration (inhibiting nonspecific IgG production below normal production) [2]: none found
2 nM	CC(C)OC(=O)C[C@H](O)C[C@H](O)/C=C/c1c(C(C)C)nc(-c2ccccc2)n1-c1ccc(F)cc1 [IId, reference compound]	0.66	100000 pM	320%	–
–	CC(C)c1nc(-c2ccccc2)n(-c2ccc(F)cc2)c1/C=C/[C@H](O)C[C@H](O)CC(=O)O [TF-002]	–	–	–	day by which tumor regressed (canine glioma; pre-treated, 10 ng/kg I.P. M, W, F): ≤ 19 days; later tumor status (canine glioma; pre-treated, 10 ng/kg, in words): free of tumor
–	CC(C)c1c(/C=C/C(O)CC(O)CC(=O)O)n(-c2ccc(F)cc2)c2ccccc12 (stereo not drawn) [TF-004]	–	–	–	day of complete regression (canine glioma; [3]): ≤ 21 days; day of substantial regression (canine glioma; [3]): ≤ 15 days; day of complete regression (canine glioma; treatment begun on Day 11): ≤ 30 days; day of substantial regression (canine glioma; treatment begun on Day 11): ≤ 21 days
